Test results as given in patent US20240279221A1, “HETEROCYCLIC COMPOUNDS AND METHODS OF USE” (Schrödinger, Inc., priority 2021, published 2024).

Columns and labels:
[1] = molecular target: SOS1:KRAS (G12C) interaction (Homo sapiens (Human), UniProt Q07889); experiment: SOS1-KRas(G12C) FRET Assay; format: binding; conditions: 0.5 nM His10-SOS1 (res. 564-1049), 2.5 nM GST-KRAS (res. 1-169, G12C); read-out: SOS-KRas(G12C) FRET IC50
Procedure, shortened: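 TR-FRET measured binding of His10-SOS1 (res. 564-1049, 0.5 nM) to GST-KRAS G12C (res. 1-169, 2.5 nM), with anti-GST-Eu(K) and anti-6His-XL665 labels, in PBS with BSA, MgCl2, KF and DTT; 0.5% DMSO. Compound and SOS1 were pre-incubated 15 min at 25° C, KRAS was added, and the plate was read at 665/615 nm after 2 h at RT. IC50 and Hill slope came from non-linear regression.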

human SOS1 = human SOS1 (Homo sapiens (Human), UniProt Q07889); experiment: Surface Plasmon Resonance (SPR) SOS1 Binding Assay; conditions: biotinylated SOS1 (res. 564-1049), 25° C., kinetic or steady state fit, read-out: KD for hSOS1
human SOS1, sequence (Q07889 564-1049): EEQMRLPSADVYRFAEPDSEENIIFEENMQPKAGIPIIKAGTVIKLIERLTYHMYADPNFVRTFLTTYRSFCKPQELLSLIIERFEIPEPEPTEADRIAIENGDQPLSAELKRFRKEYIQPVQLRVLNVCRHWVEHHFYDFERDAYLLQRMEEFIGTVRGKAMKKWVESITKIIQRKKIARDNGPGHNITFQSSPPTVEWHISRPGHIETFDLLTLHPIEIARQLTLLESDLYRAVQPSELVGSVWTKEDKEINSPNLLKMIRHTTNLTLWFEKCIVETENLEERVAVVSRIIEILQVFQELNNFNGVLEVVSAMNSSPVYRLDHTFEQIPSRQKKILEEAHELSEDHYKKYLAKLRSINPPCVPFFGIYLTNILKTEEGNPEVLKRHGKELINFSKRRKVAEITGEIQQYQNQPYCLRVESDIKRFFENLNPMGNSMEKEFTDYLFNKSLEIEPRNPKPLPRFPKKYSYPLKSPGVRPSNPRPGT
Procedure: Binding to SOS1 was measured using a SPR assay with purified recombinant human SOS1 substrate (res. 564-1049 with N-terminal Avi tag; purified and biotinylated based on Hillig, et al., Proc Natl Acad Sci USA (2019); 116(7):2551-2560). SPR measurements were performed on a Biacore 8K SPR instrument (GE Healthcare, Sweden). Assays were performed at 25° C. using Series S SA sensor chips pre-coated with streptavidin (GE Healthcare, Cat. BR100531). Biotinylated SOS1 diluted in sample buffer (20 mM Tris HCl, 150 mM NaCl, 1 mM DTT, 0.05% TWEEN 20, 1 mM MgCl2, pH 8.0) was captured to one flow cell of the chip to about 3,000 resonance units (RU) using sample buffer supplemented with 5% DMSO as a running buffer. Serial dilutions of the assayed compounds in the running buffer at 100, 50 or 0.5 μM were injected for 60 s at a flow rate of 30 μL/min and association phases were recorded. Dissociation of the samples was monitored for 600 s. Data processing was performed using Biacore Insight Software (Biacore, GE Healthcare). Sensorgrams recorded on a SA flow cell without captured protein were subtracted from sensorgrams recorded on the SOS1 surface. Blank injections of running buffer were used for double referencing and solvent correction was applied to all sample sensorgrams to correct for buffer mismatches. KDs were estimated using a kinetic or steady state, where applicable, fitting model describing a reversible equilibrium with 1:1 binding between SOS1 and the compound.

SOS1:KRAS (G12C) interaction, sequence (Q07889 564-1049, stated change not applied): as the sequence (Q07889 564-1049) above

Row | IC50 [1] [nM] | Kd (human SOS1) [nM] | Structure (SMILES)
1 | 100000 | > 50000 | C[C@H](Nc1nn(C)c(=O)c2cc(=O)n(C3CC3)cc12)c1ccc2c(C#N)nn(C)c2c1 (single isomer, unassigned) [Example 26]
2 | 192 | 75 | CC(=O)c1c(=O)n(C2CC2)cc2c(N[C@H](C)c3cccc(C(F)(F)F)c3C)nn(C)c(=O)c12 [Example 48, (R)-8-acetyl-6-cyclopropyl-2-methyl-4-((1-(2-methyl-3-(trifluoromethyl)phenyl)ethyl)amino)-2,6-dihydropyrido[3,4-d]pyridazine-1,7-dione]
3 | 1040 | 441 | COc1c(=O)n([C@H]2CCOC[C@H]2F)cc2c(N[C@H](C)c3cccc(C(F)F)c3F)nn(C)c(=O)c12 (single isomer, unassigned) [Example 59]
4 | 211 | 43 | C[C@@H](Nc1nn(C)c(=O)c2cc(=O)n([C@H]3CCCOC3)cc12)c1cccc(C(F)F)c1F (single isomer, unassigned) [Example 38]
5 | 305 | 61 | Cc1c([C@@H](C)Nc2nn(CCO)c(=O)c3cc(=O)n(C4CC4)cc23)cccc1C(F)(F)F [Example 77, (R)-6-cyclopropyl-2-(2-hydroxyethyl)-4-((1-(2-methyl-3-(trifluoromethyl)phenyl)ethyl)amino)-2,6-dihydropyrido[3,4-d]pyridazine-1,7-dione]
6 | 82.4 | 6 | C[C@@H](Nc1nn(C)c(=O)c2cc(=O)n(C3CCOCC3)cc12)c1cccc2c1OCC2(F)F [Example 47, (R)-4-((1-(3,3-difluoro-2,3-dihydrobenzofuran-7-yl)ethyl)amino)-2-methyl-6-(tetrahydro-2H-pyran-4-yl)-2,6-dihydropyrido[3,4-d]pyridazine-1,7-dione]
7 | 1530 | 134 | Cc1cc([C@@H](C)Nc2nn(C)c(=O)c3cc(=O)n(C4CC4)cc23)cc2c1c(C#N)nn2C (single isomer, unassigned) [Example 27]
8 | 1330 | 290 | Cc1c([C@@H](C)Nc2nn(C)c(=O)c3c(N)c(=O)n(C4CC4)cc23)cccc1C(F)(F)F [Example 12, (R)-8-amino-6-cyclopropyl-2-methyl-4-((1-(2-methyl-3-(trifluoromethyl)phenyl)ethyl)amino)-2,6-dihydropyrido[3,4-d]pyridazine-1,7-dione]
9 | > 10000 | – | C[C@H](Nc1nn(C)c(=O)c2cc(=O)n(C3(C(F)F)CC3)cc12)c1cccc2ccnn12 [Example 115, (S)-6-(1-(difluoromethyl)cyclopropyl)-2-methyl-4-((1-(pyrazolo[1,5-a]pyridin-7-yl)ethyl)amino)-2,6-dihydropyrido[3,4-d]pyridazine-1,7-dione]
10 | 9.03 | – | CC(=O)N1CC[C@@](n2cc3c(N[C@H](C)c4cccc(C(F)F)c4F)nn(C)c(=O)c3cc2=O)(C(F)(F)F)C1 (single isomer, unassigned) [Example 99]
11 | 1030 | – | C[C@@H](Nc1nn(C)c(=O)c2cc(=O)n(C3CC3)cc12)c1cccc2ccccc12 [Example 1, (R)-6-cyclopropyl-2-methyl-4-((1-(naphthalen-1-yl)ethyl)amino)-2,6-dihydropyrido[3,4-d]pyridazine-1,7-dione]
12 | 31.3 | – | CC(=O)N1C[C@@H]2C[C@]2(n2cc3c(N[C@H](C)c4cccc(C(F)F)c4F)nn(C)c(=O)c3cc2=O)C1 (single isomer, unassigned) [Example 140]
13 | 32.4 | – | C[C@@H](Nc1nn(C)c(=O)c2cc(=O)n(C3(C(F)F)CCC3)cc12)c1cccc(C(F)F)c1F [Example 147, (R)-4-((1-(3-(difluoromethyl)-2-fluorophenyl)ethyl)amino)-6-(1-(difluoromethyl)cyclo-butyl)-2-methyl-2,6-dihydropyrido[3,4-d]pyridazine-1,7-dione]
14 | > 10000 | – | COCC(F)(F)c1cccc([C@H](C)Nc2nn(C)c(=O)c3cc(=O)n(C4(C(F)F)CC4)cc23)c1F [Example 162, 4-[[(1S)-1-[3-(1,1-difluoro-2-methoxy-ethyl)-2-fluoro-phenyl]ethyl]amino]-6-[1-(difluoromethyl)cyclopropyl]-2-methyl-pyrido[3,4-d]pyridazine-1,7-dione]
15 | 185 | – | C[C@@H](Nc1nn(C)c(=O)c2cc(=O)n([C@@H]3C[C@H]3C3CC3)cc12)c1cccc(C(F)F)c1F (single isomer, unassigned) [Example 136]
16 | 3480 | – | CC(Nc1nn(C)c(=O)c2cc(=O)n(C3CC3)cc12)c1cc(F)cc(C(F)(F)F)c1 (centres unmarked) [Example 159, 6-cyclopropyl-4-((1-(3-fluoro-5-(trifluoromethyl)phenyl)ethyl)amino)-2-methylpyrido[3,4-d]pyridazine-1,7(2H,6H)-dione]
17 | 29.2 | – | C[C@@H](Nc1nn(C)c(=O)c2cc(=O)n([C@@]3(C(F)(F)F)CCNC3)cc12)c1cccc(C(F)F)c1F (single isomer, unassigned) [Example 96]
18 | 4.4 | – | C[C@@H](Nc1nn(C)c(=O)c2cc(=O)n(C3(C(F)F)CC3)cc12)c1cccc(C(F)(F)c2ccncc2)c1F [Example 174, (R)-4-((1-(3-(difluoro(pyridin-4-yl)methyl)-2-fluorophenyl)ethyl)amino)-6-(1-(difluoromethyl)cyclopropyl)-2-methyl-2,6-dihydropyrido[3,4-d]pyridazine-1,7-dione]
19 | 152 | – | C[C@@H](Nc1nn(C)c(=O)c2cc(=O)n([C@@H]3CC3(C)C)cc12)c1cccc(C(F)F)c1F (single isomer, unassigned) [Example 132]
20 | 1920 | – | CC(=O)N1CC[C@](n2cc3c(N[C@H](C)c4cccc(C(F)F)c4F)nn(C)c(=O)c3cc2=O)(C(F)(F)F)C1 (single isomer, unassigned) [Example 100]
21 | 209 | – | CC(=O)N1CC[C@](C)(n2cc3c(N[C@H](C)c4cccc(C(F)F)c4F)nn(C)c(=O)c3cc2=O)C1 (single isomer, unassigned) [Example 144]
22 | 248 | – | C[C@@H](Nc1nn(C)c(=O)c2cc(=O)n(C3(C)CNC3)cc12)c1cccc(C(F)F)c1F [Example 152, (R)-4-((1-(3-(difluoromethyl)-2-fluorophenyl)ethyl)amino)-2-methyl-6-(3-methylazetidin-3-yl)pyrido[3,4-d]pyridazine-1,7(2H,6H)-dione]
23 | 564 | – | COC1(C(=O)N2CC(C)(n3cc4c(N[C@H](C)c5cccc(C(F)F)c5F)nn(C)c(=O)c4cc3=O)C2)CC1 [Example 151, (R)-4-((1-(3-(difluoromethyl)-2-fluorophenyl)ethyl)amino)-6-(1-(1-methoxycyclopropane-1-carbonyl)-3-methylazetidin-3-yl)-2-methyl-2,6-dihydropyrido[3,4-d]pyridazine-1,7-dione]
24 | 77.2 | – | C[C@@H](Nc1nn(C)c(=O)c2cc(=O)n([C@]34C[C@H]3CN(C(=O)C3CC3)C4)cc12)c1cccc(C(F)F)c1F (single isomer, unassigned) [Example 142]
25 | 40.5 | – | C[C@@H](Nc1nn(C)c(=O)c2cc(=O)n([C@]34COC[C@H]3C4)cc12)c1cccc(C(F)F)c1F [Example 148, 4-[[(1R)-1-[3-(difluoromethyl)-2-fluoro-phenyl]ethyl]amino]-2-methyl-6-[(1S,5S)-3-oxabicyclo[3.1.0]hexan-1-yl]pyrido[3,4-d]pyridazine-1,7-dione]
26 | 66.6 | – | C[C@@H](Nc1nn(C)c(=O)c2cc(=O)n(C3(C(F)(F)F)COC3)cc12)c1cccc(C(F)F)c1F [Example 156, (R)-4-((1-(3-(difluoromethyl)-2-fluorophenyl)ethyl)amino)-2-methyl-6-(3-(trifluoromethyl)oxetan-3-yl)-2,6-dihydropyrido[3,4-d]pyridazine-1,7-dione]
27 | 13.8 | – | CC(=O)N1CC[C@@](n2cc3c(N[C@H](C)c4cccc5c(F)coc45)nn(C)c(=O)c3cc2=O)(C(F)(F)F)C1 (single isomer, unassigned) [Example 172]
28 | 60.8 | – | C[C@@H](Nc1nn(C)c(=O)c2cc(=O)n([C@H]3C[C@@H]3c3cncc(F)c3)cc12)c1cccc(C(F)F)c1F (single isomer, unassigned) [Example 93]
29 | 394 | – | C[C@@H](Nc1nn(C)c(=O)c2cc(=O)n([C@]3(C(F)(F)F)CCNC3)cc12)c1cccc(C(F)F)c1F (single isomer, unassigned) [Example 95]

Row | Structure (SMILES) | IC50 [1] [nM] | Kd (human SOS1) [nM]
30 | C[C@@H](Nc1nn(C)c(=O)c2c(O[C@H]3C[C@H](F)C3)c(=O)n(C3(C(F)F)CC3)cc12)c1cccc(C(F)F)c1F [Example 89, 4-(((R)-1-(3-(difluoromethyl)-2-fluorophenyl)ethyl)amino)-6-(1-(difluoromethyl)cyclopropyl)-8-((1r,3R)-3-fluorocyclobutoxy)-2-methylpyrido[3,4-d]pyridazine-1,7(2H,6H)-dione] | 122 | –
